According to article PMC5271370, “A High-Content Assay Enables the Automated Screening and Identification of Small Molecules with Specific ALDH1A1-Inhibitory Activity” (PLoS ONE, 2017):
Like-named read-outs stand apart in the source and are kept apart here.

Tests used:
[1] = target: T1, Human ALDH2 (Homo sapiens, UniProt P05091); assay: 1,536-well enzymatic assay (NADH fluorescence), ALDH2; type: biochemical
T1 construct: purchased Abcam ab87415
T1 sequence (P05091 18-517): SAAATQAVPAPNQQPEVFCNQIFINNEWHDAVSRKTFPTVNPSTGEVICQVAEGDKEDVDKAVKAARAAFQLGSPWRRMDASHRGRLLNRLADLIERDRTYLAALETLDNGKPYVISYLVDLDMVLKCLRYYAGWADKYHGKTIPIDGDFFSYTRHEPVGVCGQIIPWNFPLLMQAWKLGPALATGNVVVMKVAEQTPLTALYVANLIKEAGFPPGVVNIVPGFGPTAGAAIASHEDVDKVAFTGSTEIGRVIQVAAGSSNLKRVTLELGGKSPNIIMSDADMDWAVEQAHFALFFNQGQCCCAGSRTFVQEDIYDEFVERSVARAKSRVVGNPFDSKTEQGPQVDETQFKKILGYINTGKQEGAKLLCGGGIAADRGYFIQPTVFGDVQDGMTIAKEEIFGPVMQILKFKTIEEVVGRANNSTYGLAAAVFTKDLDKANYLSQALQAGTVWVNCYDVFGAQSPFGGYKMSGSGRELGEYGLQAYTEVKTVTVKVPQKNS
From the text: (§1) To validate our optimized assay, we assembled a set of 20 previously reported ALDH inhibitors, with varying degrees of target specificity (Table 1 and S4 Fig). […] Briefly, the assay measures the dehydrogenase activity of recombinant human ALDH1A1, ALDH1A2, ALDH1A3, ALDH2 or ALDH3A1 using NAD(P)^+ and either propionaldehyde or benzaldehyde as substrates. An orthogonal resorufin-based assay format was also run with isolated ALDH1A1 to rule out potential false positives due to intrinsic compound fluorescence.
(§2) Human ALDH1A1 and ALDH3A1 were expressed and purified as described elsewhere. Human ALDH2 was purchased from Abcam (ab87415). Human ALDH1A2 and ALDH1A3 were purchased from MyBioSource (MBS1005929; San Diego, CA) and ThermoFisher (11636H07E50), respectively. The inhibitory activity of compounds against ALDHs was measured according to protocols described previously. Briefly, 3 μL of enzyme (final concentrations of 20 nM for ALDH1A1, 50 nM for ALDH1A2, 50 nM for ALDH1A3, 75 nM for ALDH2 and 5 nM for ALDH3A1) in assay buffer (100 mM HEPES pH 7.5 with 0.01% Tween 20) were dispensed into a 1,536-well solid-bottom black plate (Greiner Bio One, Monroe, NC). […] Samples were incubated (room temperature, protected from light) for 15 minutes followed by a 1 μL substrate addition of NAD^+ and Propionaldehyde (final concentrations of 1 mM and 80 μM, respectively) for ALDH1A1, 1A2, 1A3, and ALDH2 or NADP^+ and benzaldehyde (final concentrations of 1 mM and 200 μM, respectively) for ALDH3A1. Plates were centrifuged at 1,000 rpm for 15 seconds, then read in kinetic mode on a ViewLux High-throughput CCD imager (PerkinElmer, Waltham, MA) equipped with standard UV fluorescence optics (340 nm excitation, 450 nm emission) for 5 (ALDH1A1, ALDH1A2, ALDH2, ALDH3A1) or 30 (ALDH1A3) minutes. The change in fluorescence intensity over the 5- or 30-minute reaction period was normalized against no-inhibitor and no-enzyme controls and the resulting percent inhibition data were fitted to a 4-parameter Hill equation. Bay-11 7085 was used as intraplate control. To account for artifacts due to intrinsic compound fluorescence in the above spectrum, compounds were also tested in an orthogonal resorufin assay format with optics of excitation 525 nm/emission 598 nm as described before. The same parameters as the NADH assay were used for the resorufin assay, with the addition of (final) 133 μg/mL diaphorase and 37 μM resazurin to the assay solution. Same controls were used in both formats.

[2] = target: T2, Human ALDH1A2 (Homo sapiens, UniProt O94788); assay: 1,536-well enzymatic assay (NADH fluorescence), ALDH1A2; type: biochemical
T2 construct: purchased MyBioSource MBS1005929
T2 sequence (O94788 1-518): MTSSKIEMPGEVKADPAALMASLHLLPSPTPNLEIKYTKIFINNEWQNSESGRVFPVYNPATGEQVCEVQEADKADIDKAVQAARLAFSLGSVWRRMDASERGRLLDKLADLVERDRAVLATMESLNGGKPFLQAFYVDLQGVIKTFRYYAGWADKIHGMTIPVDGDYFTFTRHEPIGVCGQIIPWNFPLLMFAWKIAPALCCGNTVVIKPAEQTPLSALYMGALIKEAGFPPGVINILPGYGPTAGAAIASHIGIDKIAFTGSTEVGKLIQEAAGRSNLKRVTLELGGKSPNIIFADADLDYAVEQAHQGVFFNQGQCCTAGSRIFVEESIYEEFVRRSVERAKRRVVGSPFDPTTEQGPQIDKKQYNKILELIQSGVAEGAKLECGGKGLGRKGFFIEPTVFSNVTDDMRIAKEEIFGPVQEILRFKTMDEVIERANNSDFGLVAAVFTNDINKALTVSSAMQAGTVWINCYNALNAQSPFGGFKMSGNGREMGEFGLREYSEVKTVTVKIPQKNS
From the text: as §1, §2

[3] = target: T3, Human ALDH3A1 (Homo sapiens, UniProt P30838); assay: 1,536-well enzymatic assay (NADPH fluorescence), ALDH3A1; type: biochemical
T3 construct: made in house
T3 sequence (P30838 1-453): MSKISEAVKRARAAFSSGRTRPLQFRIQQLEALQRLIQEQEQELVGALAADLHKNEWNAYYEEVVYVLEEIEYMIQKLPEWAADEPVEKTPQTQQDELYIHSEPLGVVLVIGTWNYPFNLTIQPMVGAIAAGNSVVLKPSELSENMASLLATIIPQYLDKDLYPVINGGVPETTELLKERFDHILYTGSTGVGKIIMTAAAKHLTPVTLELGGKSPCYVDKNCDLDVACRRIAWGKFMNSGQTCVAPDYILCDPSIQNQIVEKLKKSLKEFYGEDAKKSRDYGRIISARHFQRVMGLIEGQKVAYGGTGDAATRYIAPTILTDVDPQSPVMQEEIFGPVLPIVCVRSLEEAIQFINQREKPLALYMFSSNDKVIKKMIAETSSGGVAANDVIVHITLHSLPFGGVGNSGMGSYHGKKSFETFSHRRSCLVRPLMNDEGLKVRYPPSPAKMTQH
From the text: as §1, §2

[4] = system: ALDH1A1; conditions: reported ALDH target 1A1; read-out: Reported Biochemical IC50, ALDH1A1; cited from earlier work
[5] = validation set, 75 nM enzyme, NAD+ and propionaldehyde, read-out: Biochemical IC50 ALDH2
[6] = validation set, 50 nM enzyme, NAD+ and propionaldehyde, read-out: Biochemical IC50 ALDH1A2
[7] = validation set, 5 nM enzyme, NADP+ and benzaldehyde, read-out: Biochemical IC50 ALDH3A1

IC50 [1, 5] [nM]	IC50 [2, 6] [nM]	IC50 [3, 7] [nM]	Compound	IC50 [4] [nM]	other results
4280			CC(C)=CCCC(C)=CC=O (mixture of isomers) [Citral]		
			CC(C)N(C(=O)CCl)c1ccccc1 [Propachlor]		IC50 ([2]; hits of dual cell-based screen (Table 2), read-out: Biochemical IC50 ALDH1A2): 320 nM; IC50 ([1]; hits of dual cell-based screen (Table 2), read-out: Biochemical IC50 ALDH2): 12600 nM; IC50 ([3]; hits of dual cell-based screen (Table 2), read-out: Biochemical IC50 ALDH3A1): 50100 nM
	24100		C#CCN(C)Cc1ccccc1 [Pargyline]		
2150	340	5390	CCOc1ccc(NCC(=O)Nc2ccc(Cl)cc2C)cc1 [CID 725345]	3500	
			O=c1c(-c2ccc(O)cc2)coc2cc(O[C@@H]3O[C@H](CO)[C@@H](O)[C@H](O)[C@H]3O)ccc12 [Daidzin]		IC50 [2]: 21500 nM
9590	3030	21500	COc1cccc2cc(C(=O)CC3(O)C(=O)N(Cc4ccccc4)c4ccccc43)c(=O)oc12 (stereo not drawn) [CID 2929292]	90	
1210	340	17000	CVT-10216	1300	
	24100		Nc1ccccc1C(=O)CC(N)C(=O)O (stereo not drawn) [Kynurenine]		
19100	15200		Cc1nc2ccccc2n1S(=O)(=O)c1ccc(F)cc1 [CB7]		
21500	680	2410	O=C1Nc2ccccc2C1=O [indoline-2,3-dione]	20	
			Cc1cc2c(C(C)C)c(O)c(O)c(C=O)c2c(O)c1-c1c(C)cc2c(C(C)C)c(O)c(O)c(C=O)c2c1O [Gossypol]	75000	IC50 [2]: 5390 nM; IC50 [1]: 24100 nM; IC50 [3]: 27000 nM
	140	1910	CCN(CC)C(=S)SSC(=S)N(CC)CC [Disulfiram]	150	

Compound	IC50 [1, 5] [nM]	IC50 [2, 6] [nM]	IC50 [3, 7] [nM]	IC50 [4] [nM]	other results
COc1ccc(C(=O)CCN(C)C)cc1F [Aldi-2]	100	120	40	2500	
CC(C)(C)c1ccc(S(=O)(=O)/C=C/C#N)cc1 [Bay-11-7085]	50	380	540	74	
CCN(CC)c1ccc(C=O)cc1 [DEAB, 4-N,N-diethylaminobenzaldehyde]		3400	6050		
